Experimental data as given in patent US9168243B2, “Pharmaceutical compositions comprising 8-substituted dibenzylbutyrolactone lignans” (priority 2010, dated 2015).
Entries after “also recorded” stand apart in the source; their conditions may differ.

Legend:
Format in all cases: cell-based
[1] = tested on: LNCaP prostate cancer cells; experiment: Flow cytometric screen for sensitization to TRAIL-induced apoptosis (nuclear fragmentation by propidium iodide, mitochondrial depolarization by TMRM)
Description: Flow cytometric analysis of apoptosis with HTS platform was performed on cells that were plated on a 96-well plate as triplicate samples. After 24 hours in androgen-deprived conditions, the cells were pretreated with 40 μM lignans or lignan derivatives for 1 hour prior to addition of 10 ng/ml izTRAIL. Twenty hours later the plate was centrifuged with a culture plate rotor (1000 rpm, 3 minutes). For analysis of nuclear fragmentation, propidium iodide (PI) buffer (40 mM Na-citrate, 0.3% Triton X-100, 50 μg/ml PI; Sigma) was added to the wells. After 10 minutes incubation at room temperature, the plate was analyzed with LSRII flow cytometer equipped with HTS platform (PE-A channel). The fraction of sub-G0/G1 events (nuclear fragmentation) was gated as a measure of apoptotic cell death. For detection of mitochondrial depolarization, the cells were detached by trypsinization of the cells and incubated in 20 nM tetramethylrhodamine (TMRM; Invitrogen) in warm culture medium for 10 minutes before analysis. The plate was analyzed with LSRII flow cytometer equipped with HTS platform (FSC, PE-A channel). The cells with decreased TMRM incorporation were considered to have undergone mitochondrial membrane depolarization. Activated caspase-3 in cells was labeled with phycerythrin (PE)-conjugated antibody according to manufacturer's protocol (BD Pharmingen) and analyzed by FacsCalibur flow cytometer (FL-2, FSC).
LNCaP cells were cultured in the absence of 1 nM androgen and incubated with lignan compounds (40 μM) for 1 hour before izTRAIL treatment (10 ng/ml) or control for 20 hours. The samples were screened for nuclear fragmentation by propidium iodide labeling (FIG. 1A) or mitochondrial depolarization by TMRM labeling (FIG. 1B). The plates were analyzed with LSRII flow cytometer equipped with HTS platform (FSC, PE-A channels). The fraction of sub-G0/G1 events (nuclear fragmentation; PE-A channel) was gated as a measure of apoptotic cell death (FIG. 1A) and the cells with decreased TMRM incorporation (PE-A channel) were considered to have undergone mitochondrial membrane depolarization (FIG. 1B). Representative histograms and dot blots for control, TRAIL, nortrachelogenin (NTG) and NTG+TRAIL treatments are viewed.
Importantly, substitution with methyl group at position 8 further increases activity of dibenzylbutyrolactone lignans in sensitization of LNCaP prostate cancer cells to TRAIL-mediated apoptosis (FIG. 8). LNCaP cells were cultured in the absence of 1 nM androgen and incubated with indicated lignan compounds (40 μM) for 1 hour before izTRAIL treatment (10 ng/ml) or control for 20 hours. The cells were disrupted and the nuclei labeled for DNA content with propidium iodide. The samples were analyzed by flow cytometry and the fraction of sub-G0/G1 events (nuclear fragmentation) was detected as a measure of apoptotic cell death (mean±SEM; n=4). (FIG. 8A). Alternatively, LNCaP cells (+/−1 nM androgen) were incubated with 0-100 μM 8-Me-MAT for 1 hour after which total cell lysates were prepared and the samples were analyzed by Western blotting for Akt and phospho-Akt(ser473) expression.

[2] = tested on: Akt; experiment: Confocal microscopy of Akt localization; conditions: androgen-deprived LNCaP; 100 μM NTG, 2 hours
Description: After treatments, the cells cultured on coverslips were washed with PBS and fixed with 3% paraformaldehyde for 15 minutes at room temperature. The samples were permeabilized and blocked for one hour in 3% BSA 0.1% Tween in PBS. Akt was labeled with rabbit anti-Akt antibody (Cell signaling) and Alexa 546-conjugated anti-rabbit secondary antibody (Molecular Probes). After washing with PBS, the samples were mounted with DAPI Vectashield (Vector Laboratories) and viewed by Zeiss LSM 510 META laser-scanning confocal microscope (63× oil objective, 543 nm excitation).
LNCaP cells (+/−1 nM androgen) were treated with 0-100 μM enterolactone (ENL), matairesinol (MAT) or NTG for 1 hour prior to preparation of total cell lysates (FIG. 4A). The relative decrease in pAkt/Akt ratio was quantified from western blot analysis with Akt (60 kDa) and phospho-Akt(ser473) (Mean±SEM; n=4; Student's t-test *p<0.05, **p<0.01). Alternatively, androgen-deprived LNCaP cells were incubated with 100 μM NTG for 2 hours, fixed and labeled with Akt antibody followed by Alexa 546-conjugated secondary antibody. The samples were viewed at LSM 510 confocal microscope (63× oil objective, 543 nm excitation) (FIG. 4B). […] The western blot analysis with Akt, phospho-Akt(ser473), GSK-3β and phospho-GSK-3β(ser9) was quantified. […]

[3] = tested on: phospho-GSK-3β(ser9); experiment: Western blot of GSK-3β / phospho-GSK-3β(ser9); conditions: LNCaP +/- 1 nM androgen; 100 μM NTG, 0-8 hours
Description: Whole cell lysates were prepared by lysing floating and attached cells in Laemmli sample buffer and boiling the samples for 10 minutes. Proteins were separated by SDS-PAGE and transferred on PVDF membrane (Millipore). Western blotting was performed using antibodies against Akt, phospho-Akt (Ser473), GSK-3β, phospho-GSK-3β (Ser9) and phospho-EGF receptor Tyr(1068) (Cell Signalling Technology), Actin (clone AC-40; Sigma-Aldrich), PI3K p85α (clone 4/PI3-Kinase; BD Pharmingen), EGF receptor, Insulin receptor β and IGF-I receptor β (Santa Cruz Biotechnology), and Phospho-tyrosine (clone 4G10; Millipore). HRP-conjugated secondary antibodies were from Southern Biotechnology Associates, Promega, and Amersham Biosciences. The results were visualized using the ECL method (Amersham Biosciences) on x-ray film. The presented Western blot results are representative of at least three independent experiments. […]
LNCaP cells (+/−1 nM androgen) were treated with 0-100 μM enterolactone (ENL), matairesinol (MAT) or NTG for 1 hour prior to preparation of total cell lysates (FIG. 4A). The relative decrease in pAkt/Akt ratio was quantified from western blot analysis with Akt (60 kDa) and phospho-Akt(ser473) (Mean±SEM; n=4; Student's t-test *p<0.05, **p<0.01). […] The western blot analysis with Akt, phospho-Akt(ser473), GSK-3β and phospho-GSK-3β(ser9) was quantified. […]

[4] = tested on: LNCaP cells; experiment: Apoptosis after prolonged incubation with NTG alone; conditions: 0-100 μM NTG, 24-72 h

COc1cc(CC2COC(=O)C2(O)Cc2ccc(O)c(OC)c2)ccc1O (centres unmarked) [NTG, Nortrachelogenin]
capacity to sensitize LNCaP prostate cancer cells to TRAIL-induced apoptosis ([1]; androgen-deprived, 40 μM lignan 1 hour before 10 ng/ml izTRAIL, 20 hours): highest capacity of the tested lignan compounds; also recorded: most efficient of the 27 tested lignan compounds; also recorded: clearly enhances the activity
increase of the apoptotic response compared to TRAIL alone (factor) ([1]; lignan in combination with TRAIL): 3.2
cellular localization of Akt [2]: increases cytoplasmic localization of Akt
GSK-3β phosphorylation (pGSK-3β/GSK-3β ratio) [3]: downregulates Akt and GSK-3β phosphorylation
induction of apoptosis by NTG alone [4]: did not induce apoptosis
